Among the data in patent publication US11045435B2, “Methods for treating ocular diseases” (NATUREWISE BIOTECH & MEDICALS CORPORATION, priority 2016, dated 2021) are vascular permeability and IL-1-induced uveitis values, retold here.

Assay [1] relates to experimentally-induced ocular inflammation. Description: Vascular permeability in experimentally-induced ocular inflammation. In kind it is in vivo. Particulars: earlier experiments of the applicant's laboratory.
The test system of assay [2] is IL-1-induced uveitis. Nature of the assay: IL-1-induced uveitis in rat eyes. In kind it is in vivo. Particulars: earlier experiments of the applicant's laboratory.

For the compound `COc1ccc2ccc(=O)oc2c1CC=C(C)C` [Osthole], in assay [1], the vascular permeability entry is given as “showed efficacy to reduce vascular permeability”. Moreover, the IL-1-induced uveitis result in assay [2] was “inhibit IL-1-induced uveitis”.
